Assay results reported in PMC4504005, “Structural Basis for Receptor Activity-Modifying Protein-Dependent Selective Peptide Recognition by a G Protein-Coupled Receptor” (Molecular cell, 2015).
pIC50: −log10 of the molar value. Read-outs that look alike come from different tables or passages of the source. Ends that are not written are not given here.

Legend:
[1] = target: T1, MBP-RAMP2 ECD [L106R]-(GSA)3-CLR ECD-H6 (Homo sapiens, UniProt O60895+Q16602, L106R); test: Competition AlphaScreen, AM1 receptor ECD complex [L106R]; format: binding; conditions: for IC50 / binding of swap peptide: 100 nM protein, 100 nM biotin-AM; for IC50: 0.3% Triton X-100, mean ± SEM, at least three independent experiments in duplicate, read-out: pIC50 (converted); for binding of swap peptide: competition AlphaScreen, Figures 6H-6J
T1 construct: MBP-hRAMP2.55-140 [L106R]-(Gly-; Ser-Ala)3-hCLR.29-144-H6 proteins; made in house; host or cells: E. coli (co-expressed with DsbC)
Excerpt: (§1) Plasmid construction, mutagenesis, protein expression, purification, and the AlphaScreen peptide-binding assay were as previously described with minor modifications to the AlphaScreen assay ([Hill and Pioszak, 2013]; [Moad and Pioszak, 2013]). Synthetic peptides were from RS Synthesis, Bachem, or were synthesized in-house. Details are in Supplemental Experimental Procedures.
(§2) Supplemental Experimental Procedures
(§3) Plasmid construction and protein production and characterization. Bacterial pETDuet1 […]
(§4) numbers indicated) fusion proteins co-expressed with DsbC were constructed using the Gibson Assembly cloning method with Gibson Assembly master mix (New England […]
(§5) 2014). Site directed mutagenesis was performed with the QuikChange II kit (Agilent) or using the Gibson Assembly method. Primer sequences are available upon request. All constructs were verified by automated DNA sequencing.
(§6) The tethered ECD fusion proteins were expressed in E. coli, purified, and characterized for peptide binding with an AlphaScreen peptide binding assay as previously described (Moad and Pioszak, 2013), except that the AlphaScreen competition assays also included 0.3% (v/v) Triton X-100 in the reaction buffer. Triton X-100 […]
(§7) reactions in which the donor and acceptor beads were brought together by a Biotin-(Gly)6-(His)6 peptide. The binding experiments were conducted at least three times with each independent experiment performed with duplicate samples. pIC50 values are stated as the mean of the replicate independent experiments ± S.E.M. Although slight variation […]
(§8) Peptides. […]

[2] = target: T2, MBP-RAMP2 ECD-(GS)5-CLR ECD-H6 (WT RAMP2 ECD-CLR ECD fusion) (Homo sapiens, UniProt O60895+Q16602); test: Competition AlphaScreen, WT RAMP2 ECD-CLR ECD fusion; format: binding; conditions: text (Fig S1C), approximate
T2 construct: MBP-hRAMP2.55-140-(Gly-Ser-Ala)3-hCLR.29-144-H6; made in house; host or cells: E. coli
Excerpt: as §1, §2, §3
(§9) numbers indicated) fusion proteins co-expressed with DsbC were constructed using the Gibson Assembly cloning method with Gibson Assembly master mix (New England Biolabs). Plasmids for expression of tagged full-length CLR and RAMP1 or -2 receptors in mammalian cells were previously described (Barwell et al., 2010; Watkins et al., 2014). Site directed mutagenesis was performed with the QuikChange II kit (Agilent) or using the Gibson Assembly method. Primer sequences are available upon request. All constructs were verified by automated DNA sequencing.
as §6

[3] = target: T3, MBP-RAMP1 ECD-(GSA)3-CLR ECD-H6 (Homo sapiens, UniProt O60894+Q16602); test: Competition AlphaScreen, CGRP receptor ECD complex; format: binding; conditions: for binding of swap peptide: competition AlphaScreen, Figures 6E-6G, 100 nM protein, 100 nM biotin-CGRP
T3 construct: made in house; host or cells: E. coli (co-expressed with DsbC)
Excerpt: as §1, §2, §3, §4, §5, §6, §7, §8

[4] = tested on: MBP-hRAMP1.24-111-(Gly-Ser-Ala)3-hCLR.29-144-H6; test: Apparent aggregation in AlphaScreen competition assay, RAMP1-(GSA)3-CLR protein; format: physicochemical, human; conditions: reaction buffer with 0.3% (v/v) Triton X-100, which minimized but did not completely prevent it; data not shown
Excerpt: as §2, §3, §9, §6
Ser-Ala)3-hCLR.29-144-H6 proteins (data not shown).
CGRP analog prevented it from fully competing the binding signal to background levels […]
receptor crystallization construct are likely a bit higher than the true values. Competitor

| IC50 ([1]; Figure 6I) | Molecule | binding of swap peptide [3] | binding of swap peptide [1] | other results |
| --- | --- | --- | --- | --- |
| 14.5 µM | CC[C@H](C)[C@H](NC(=O)[C@H](CCC(N)=O)NC(=O)[C@H](Cc1c[nH]cn1)NC(=O)[C@H](C)NC(=O)[C@H](CC(C)C)NC(=O)[C@H](CCCCN)NC(=O)[C@H](CCC(N)=O)NC(=O)[C@@H](NC(=O)[C@@H](N)[C@@H](C)O)C(C)C)C(=O)N[C@@H](Cc1ccc(O)cc1)C(=O)N[C@@H](CCC(N)=O)C(=O)N[C@@H](Cc1ccccc1)C(=O)N[C@H](C(=O)N[C@@H](CC(=O)O)C(=O)N[C@@H](CCCCN)C(=O)N[C@@H](CC(=O)O)C(=O)N[C@@H](CCCCN)C(=O)N[C@@H](CC(=O)O)C(=O)N[C@@H](CC(N)=O)C(=O)N[C@H](C(=O)N[C@@H](C)C(=O)N1CCC[C@H]1C(=O)N[C@@H](CCCNC(=N)N)C(=O)N[C@@H](CO)C(=O)N[C@@H](CCCCN)C(=O)N[C@H](C(=O)N[C@@H](CO)C(=O)N1CCC[C@H]1C(=O)N[C@@H](CCC(N)=O)C(=O)NCC(=O)N[C@@H](Cc1ccc(O)cc1)C(N)=O)[C@@H](C)CC)C(C)C)[C@@H](C)O [AM(22-52)NH2] | – | – | pIC50 ([1]; AlphaScreen competition, text (Figs S1C, S1H), approximate, read-out: IC50): 4.82 to 5.30; IC50 ([1]; Figure 6H): 12 µM; pIC50 [2]: 4.82 to 5.30 |
| – | CC(C)[C@H](NC(=O)[C@H](CC(=O)O)NC(=O)[C@@H](NC(=O)[C@@H]1CCCN1C(=O)[C@@H](NC(=O)[C@@H](N)Cc1ccccc1)C(C)C)[C@@H](C)O)C(=O)NCC(=O)N1CCC[C@H]1C(=O)N[C@@H](Cc1ccccc1)C(=O)N[C@@H](C)C(=O)N[C@@H](Cc1ccccc1)C(N)=O [CGRPmut] | – | – | pIC50 [3]: 6.34; apparent aggregation [4]: apparent aggregation |
| – | AM(37–52)NH2 [Y52F]: C-terminal residue swap of minimal ECD complex-binding AM peptide | did not gain increased affinity for the CGRP receptor ECD complex | exhibited significantly diminished binding to the AM1 receptor ECD complex | – |
| – | DKDNVAPRSKISPQGY-NH2 [AM(37–52)] | – | – | IC50 ([1]; Figure 6J): 10 µM |
| 16.2 µM | FVPTDVGPFAY-NH2 [CGRPmut [F37Y]] | retained CGRP receptor ECD complex binding | gained the ability to bind the AM1 receptor ECD complex as strongly as AM | – |
